From patent US11160785B2, “Methods and compositions for improving cognitive function” (AgeneBio, Inc., priority 2013, dated 2021)

Tests used:
MAM-treated rats = details: cited from earlier work
aged-impaired rats [1] = assay: Radial Arm Maze task, acute brivaracetam or seletracetam (Example 4); details: rat, in vivo
aged-impaired rats [2] = assay: water maze task after chronic treatment (Example 4); format: in vivo, rat; details: brivaracetam 2 mg/kg/day, osmotic mini-pump
Excerpt: Another cognitive test that may be used to assess the effects of a test compound on the cognitive impairment of a CNS disorder model animal is the Morris water maze. A water maze is a pool surrounded with a novel set of patterns relative to the maze. […] The subject is trained to locate a submerged escape platform hidden underneath the surface of the pool. During the training trial, a subject is released in the maze (pool) from random starting positions around the perimeter of the pool. The starting position varies from trial to trial. […] After a delay period following the last training trial, a retention test in the absence of the escape platform is given to assess spatial memory. The subject's level of preference for the location of the (now absent) escape platform, as measured by, e.g., the time spent in that location or the number of crossings of that location made by the mouse, indicates better spatial memory, i.e., treatment of cognitive impairment. The preference for the location of the escape platform under different treatment conditions, can then be compared for efficacy of the test compound in treating cognitive impairment associated with CNS disorders.
The radial arm maze experiments used acute administration of seletracetam (0-4 mg/kg), brivaracetam (0-4 mg/kg), or saline vehicle given by intraperitoneal injection (in a volume of 1 ml/kg) 30-40 min prior to test sessions. In the chronic treatment experiment, memory-impaired aged rats were implanted subcutaneously in the intrascapular region with osmotic mini-pumps (ALZET, Durect Corporation, Cupertino, Calif.) with brivaracetam (2 mg/kg/day) or saline vehicle starting two weeks prior to assessment in the water maze.
Rats were trained and tested in a novel water maze environment to assess the effect of drug treatment. The water maze used here was housed in a different building and was surrounded by curtains with a novel set of patterns relative to the maze used for initial assessment of cognitive status. The training protocol consisted of 6 trials per day for 2 days to locate a submerged escape platform. […]

aged-impaired rats (AI) = format: in vivo, rat; details: rat, in vivo
Description: FIG. 1 depicts the effects of administering levetiracetam on the spatial memory retention of ten aged-impaired rats (AI) in an eight-arm Radial Arm Maze (RAM) test. Six treatment conditions are employed: vehicle control, levetiracetam (1.25 mg/kg/day), levetiracetam (2.5 mg/kg/day), levetiracetam (5 mg/kg/day), levetiracetam (10 mg/kg/day) and levetiracetam (20 mg/kg/day). In the RAM task used, there is a one-hour delay between presentation of a subset of arms (5 arms available and 3 arms blocked) and completion of the eight-arm win-shift task (eight arms available). Rats are pre-treated 30-40 minutes before daily trials with a one-time drug/control treatment. The number of errors made by the rats during the retention phase is used as a measure of spatial memory retention. Errors are defined as instances when rats enter an arm from which food has already been retrieved in the pre-delay component of the trial or when rats re-visit an arm in the post-delay session that had already been visited. Paired t-tests are used to compare the number of errors between different doses of levetiracetam and vehicle control. […]
A Radial Arm Maze (RAM) behavioral task is one example of a cognitive test, specifically testing spacial memory (Chappell et al. Neuropharmacology 37: 481-487, 1998). The RAM apparatus consists of, e.g., eight equidistantly spaced arms. A maze arm projects from each facet of a center platform. A food well is located at the distal end of each arm. Food is used as a reward. Blocks can be positioned to prevent entry to any arm. Numerous extra maze cues surrounding the apparatus may also be provided. After habituation and training phases, spatial memory of the subjects may be tested in the RAM under control or test compound-treated conditions. As a part of the test, subjects are pretreated before trials with a vehicle control or one of a range of dosages of the test compound. At the beginning of each trial, a subset of the arms of the eight-arm maze is blocked. Subjects are allowed to obtain food on the unblocked arms to which access is permitted during this initial “information phase” of the trial. Subjects are then removed from the maze for a delay period, e.g., a 60 second delay, a 15 minute delay, a one-hour delay, a two-hour delay, a six hour delay, a 24 hour delay, or longer) between the information phase and the subsequent “retention test,” during which the barriers on the maze are removed, thus allowing access to all eight arms. […] The identity and configuration of the blocked arms vary across trials. The number of “errors” the subjects make during the retention test phase is tracked. An error occurs in the trial if the subjects entered an arm from which food had already been retrieved in the pre-delay component of the trial, or if it re-visits an arm in the post-delay session that had already been visited. A fewer number of errors would indicate better spatial memory. The number of errors made by the test subject, under various test compound treatment regimes, can then be compared for efficacy of the test compound in treating cognitive impairment associated with CNS disorders.

SMILES: C#Cc1ccc2c(c1)C(c1ccccc1F)=N[C@H](C)c1c(C(=O)OCC)ncn1-2 [SH-053-2′F-R-CH3]
- number of spontaneously active DA neurons in the ventral tegmental area (VTA) (MAM-treated rats; MAM rats, administered systemically or infused into the ventral HPC, to levels of saline-treated rats): reduces the number of spontaneously active DA neurons
- increased locomotor response to amphetamine (MAM-treated rats; MAM-treated rats): reduced
- cortical-evoked responses of HPC neurons (MAM-treated rats; saline-treated and MAM-treated animals): diminished cortical-evoked responses

SMILES: CCC[C@@H]1CC(=O)N([C@@H](CC)C(N)=O)C1 [brivaracetam]
- number of errors in the retention phase, effect as a function of dose (aged-impaired rats [1]): significant effect as a function of dose
- spatial bias for the target quadrant compared to the other quadrants (probe test) (aged-impaired rats [2]; 14 days, n=3/group, t(2)=10.000, p=0.010): significant spatial bias for the target quadrant
- time in the target annulus vs vehicle-treated rats (aged-impaired rats [2]; t(4)=3.109, p=0.036): significantly more time in the target annulus
- time in the target quadrant vs vehicle-treated rats (aged-impaired rats [2]; t(4)=3.881, p=0.018): significantly more time in the target quadrant

SMILES: COc1cc2c(cc1OC)C(=O)C(CC1CCN(Cc3ccccc3)CC1)C2 (stereo not drawn) [donepezil, 2,3-dihydro-5,6-dimethoxy-2-((1-(phenylmethyl)-4-piperidinyl)methyl)-1H-inden-1-one]
- average no. of errors±SEM (aged-impaired rats (AI)): 2.81±0.43
- average no. of errors±standard error of the mean (SEM) (aged-impaired rats (AI)): 2.88±0.46

SMILES: CC[C@@H](C(N)=O)N1C[C@H](C=C(F)F)CC1=O [seletracetam]
- number of errors in the retention phase, effect as a function of dose (aged-impaired rats [1]): significant effect as a function of dose

SMILES: NC1=N[C@H](O)[C@H]2[C@H]3O[C@]4(O)O[C@@H]([C@@H](O)[C@@]2(N1)[C@@H]4O)[C@]3(O)CO [tetrodotoxin]
- augmented amphetamine-induced locomotor behavior (MAM-treated rats; rat, in vivo): normalized the augmented amphetamine-induced locomotor behavior
- elevated DA neuron population activity (MAM-treated rats; rat, in vivo): completely reversed the elevated DA neuron population activity
